Reference: patent US8093406B2, “Cyclic sulfones with aminobenzyl substitution useful as BACE inhibitors” (Novartis AG, priority 2008, dated 2012)
Counter-ions that a name gives are not always drawn.

Molecular target: T1, Human BACE (Homo sapiens, UniProt P56817)
T1 construct: Recombinant BACE (extracellular domain, expressed in baculovirus and purified using standard methods); made in house
Experiment: Test 1: Inhibition of Human BACE
Format: biochemical
Conditions: not given
Experimental: Test 1: Inhibition of Human BACE
Recombinant BACE (extracellular domain, expressed in baculovirus and purified using standard methods) at 0.1 to 10 nM concentrations is incubated with the test compound at various concentrations for 1 hour at room temperature in 10 to 100 mM acetate buffer, pH 4.5, containing 0.1% CHAPS. […] IC50 values are calculated from percentage of inhibition of BACE-activity as a function of the test compound concentration.

T1 sequence (P56817 46-457 limits assumed): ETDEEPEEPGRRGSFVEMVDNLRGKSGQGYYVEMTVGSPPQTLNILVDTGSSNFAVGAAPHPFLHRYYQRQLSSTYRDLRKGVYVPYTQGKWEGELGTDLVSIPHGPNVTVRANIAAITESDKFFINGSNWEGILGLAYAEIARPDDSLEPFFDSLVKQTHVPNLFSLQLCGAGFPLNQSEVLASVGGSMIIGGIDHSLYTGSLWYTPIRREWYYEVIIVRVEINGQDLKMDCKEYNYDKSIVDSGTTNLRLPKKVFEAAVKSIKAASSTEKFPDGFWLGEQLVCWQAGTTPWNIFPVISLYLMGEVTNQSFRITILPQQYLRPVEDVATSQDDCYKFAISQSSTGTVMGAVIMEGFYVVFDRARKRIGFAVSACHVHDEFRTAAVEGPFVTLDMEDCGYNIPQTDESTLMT

Row | Structure (SMILES) | IC50
1 | COC[C@@H](Oc1cc(C[C@@H]2C[S@@+]([O-])C[C@H](NCc3cccc(C(C)(C)C)c3)C2=O)cc(F)c1N)C(F)(F)F [Example 64, (1R,3S,5R)-3-[4-Amino-3-fluoro-5-((R)-2,2,2-trifluoro-1-methoxymethyl-ethoxy)-benzyl]-5-(3-tert-butyl-benzylamino)-1-oxo-tetrahydro-thiopyran-4-one trifluoroacetate] | 4 nM

Same assay, conditions: Test 1; recombinant BACE extracellular domain, acetate buffer pH 4.5, 1 hour incubation at room temperature, fluorescence-quenched APP-derived peptide substrate; read-out: Bace IC50

Row | Structure (SMILES) | IC50
2 | COC[C@@H](Oc1cc(C[C@@H]2C[S@@+]([O-])C[C@H](NCc3cc(OC)cc(C(C)(C)C)c3)[C@H]2O)cc(F)c1N)C(F)(F)F [Example 49, (1R,3S,4S,5R)-3-[4-Amino-3-fluoro-5-((R)-2,2,2-trifluoro-1-methoxymethyl-ethoxy)-benzyl]-5-(3-tert-butyl-5-methoxy-benzylamino)-1-oxo-tetrahydro-thiopyran-4-ol dihydrochloride] | 15 nM
3 | COC[C@@H](Oc1cc(C[C@@H]2C[S@@+]([O-])C[C@H](NCc3ccc4c(c3)OC(C)(C)C4)[C@H]2O)cc(F)c1N)C(F)(F)F [Example 50, (1R,3S,4S,5R)-3-[4-Amino-3-fluoro-5-((R)-2,2,2-trifluoro-1-methoxymethyl-ethoxy)-benzyl]-5-[(2,2-dimethyl-2,3-dihydro-benzofuran-6-ylmethyl)-amino]-1-oxo-tetrahydro-thiopyran-4-ol dihydrochloride] | 2400 nM
4 | C[C@H](Oc1cc(C[C@@H]2C[S@@+]([O-])C[C@H](NCc3ccc4c(c3)C(C)(C)OC4)[C@H]2O)cc(F)c1N)C(F)(F)F [Example 52, (1R,3S,4S,5R)-3-[4-Amino-3-fluoro-5-((S)-2,2,2-trifluoro-1-methyl-ethoxy)-benzyl]-5-[(3,3-dimethyl-1,3-dihydro-isobenzofuran-5-ylmethyl)-amino]-1-oxo-hexa-hydro-1lambda*4*-thiopyran-4-ol] | 117 nM
5 | COCC(Oc1cc(CC2C[S+]([O-])CC(NCc3cccc(OC)c3)C2O)cc(F)c1N)C(F)(F)F (stereo not shown) [Example 59] | 384 nM
6 | COCC(Oc1cc(CC2C[S+]([O-])CC(NCc3cccc(OC(F)F)c3)C2O)cc(F)c1N)C(F)(F)F (stereo not shown) [Example 62] | 334 nM
7 | C[Si](C)(C)c1cccc(CNC2C[S+]([O-])CC(Cc3cc(F)c(N)c(OCC(F)(F)F)c3)C2O)c1 (stereo not shown) [Example 63] | 118 nM
